# Test results reported in patent US12108761B2, “Mesostigmata mite control agent” (MEIJI SEIKA PHARMA CO., LTD., priority 2017, dated 2024).
# Key:
# Assay type in all cases: in vivo
# [1] = test system: red mites (Dermanyssus gallinae); assay: Test Example 4: controlling effect on red mites, Pasteur pipette treated with acetone solution; conditions: 24 hours after treatment, unfed adult red mites; for pest or weed control at 5000 ppm: Dermanyssus gallinae, read-out: Ratio of dead and affected mites; for Ratio of dead and affected mites: 5000 ppm
# Excerpt: The tip of a Pasteur pipette was sealed with Parafilm, and an acetone solution (liquid agent) of each of the samples shown in Table 5 below diluted to a predetermined concentration was poured into the pipette through an upper portion thereof. One minute later, the Parafilm at the tip was detached, and the liquid agent was discharged. After the pipette was air dried, absorbent cotton was inserted to an upper end of the pipette, and 20 unfed adult red mites (Dermanyssus gallinae) were released into the pipette. After the tip was sealed with Hemato-Seal, the pipette was stored in the dark in an incubator at a temperature of 25 to 28° C. and a humidity of 40 to 60%. […] Then, the ratio (%) of dead and affected mites was calculated according to the following formula. Acequinocyl and fluacrypyrim were used as control drugs. The ratio (%) of dead and affected mites={(the number of dead mites+the number of affected mites)/(the number of survived mites+the number of affected mites+the number of dead mites)}×100
# [2] = test system: red mites (Dermanyssus gallinae); assay: Test Example 1: controlling effect on red mites, Pasteur pipette treated with acetone solution; conditions: unfed adult red mites
# Excerpt: The tip of a Pasteur pipette was sealed with Parafilm, and an acetone solution (liquid agent) of each of the samples shown in Table 2 below diluted to a predetermined concentration was poured into the pipette through an upper portion thereof. One minute later, the Parafilm at the tip was detached, and the liquid agent was discharged. After the pipette was air dried, absorbent cotton was inserted to an upper end of the pipette, and 20 unfed adult red mites (Dermanyssus gallinae) were released into the pipette. After the tip was sealed with Hemato-Seal, the pipette was stored in the dark in an incubator at a temperature of 27 to 28° C. and a humidity of 50 to 60%. After 24, 48, and 72 hours had passed since the treatment, the mites were observed under a stereomicroscope to determine whether the mites were dead or alive and whether the mites were affected. Then, the ratio (%) of dead and affected mites was calculated according to the following formula. Spinosad, trichlorfon, and permethrin were used as control drugs. The ratio (%) of dead and affected mites={(the number of dead mites+the number of affected mites)/(the number of survived mites+the number of affected mites+the number of dead mites)}×100
# [3] = test system: northern fowl mites (Ornithonyssus sylviarum); assay: Test Example 3: controlling effect on northern fowl mites, Pasteur pipette treated with acetone solution; conditions: fed adult northern fowl mites
# Excerpt: The tip of a Pasteur pipette was sealed with Parafilm, and an acetone solution (liquid agent) of each of the samples shown in Table 4 below diluted to a predetermined concentration was poured into the pipette through an upper portion thereof. One minute later, the Parafilm at the tip was detached, and the liquid agent was discharged. After the pipette was air dried, absorbent cotton was inserted to an upper end of the pipette, and 10 fed adult northern fowl mites (Ornithonyssus sylviarum) were released into the pipette. After the tip was sealed with Hemato-Seal, the pipette was stored in the dark in an incubator at 25° C. and at a humidity of 80%. After 2 and 24 hours had passed since the treatment, the mites were observed under a stereomicroscope to determine whether the mites were dead or alive and whether the mites were affected. Then, the ratio (%) of dead and affected mites was calculated. The ratio (%) of dead and affected mites={(the number of dead mites+the number of affected mites)/(the number of survived mites+the number of affected mites+the number of dead mites)}×100
compound,measurement,setting,value
CC1=C(C(=O)Nc2ccccc2)SCCO1 [Carboxin],pest or weed control at 5000 ppm,[1],42.6%
Cc1ccccc1C(=O)Nc1cccc(OC(C)C)c1 [Mepronil],pest or weed control at 5000 ppm,[1],52.1%
CO/C=C(/C(=O)OC)c1ccccc1COc1cc(C(F)(F)F)nc(OC(C)C)n1 [Fluacrypyrim],pest or weed control at 5000 ppm,[1],19.3%
Cc1cc(OC(C)C)ccc1C(=O)C(C)(C)NC(=O)c1sccc1C [Isofetamid],Ratio of dead and affected mites,[1],17.4%
CC(C)CC(C)c1sccc1NC(=O)c1cn(C)nc1C(F)(F)F (stereo not shown) [Penthiopyrad],pest or weed control at 5000 ppm,[1],35%
CNC(=O)/C(=N/OC)c1ccccc1CO/N=C(C)/C(=N/OC)C(/C)=N/OC [Orysastrobin],Ratio of dead and affected mites,[1],82.6%
Cc1c(Br)c2ccc(F)cc2n1S(=O)(=O)c1ncn(S(=O)(=O)N(C)C)n1 [Amisulbrom],Ratio of dead and affected mites,[1],92.9%
CO/C=C(/C(=O)OC)c1ccccc1COc1cccc(C(F)(F)F)n1 [Picoxystrobin],Ratio of dead and affected mites,[1],80.5%
O=C(Nc1ccccc1-c1ccc(Cl)cc1)c1cccnc1Cl [Boscalid],pest or weed control at 5000 ppm,[1],44.5%
COC(=O)N(OC)c1ccccc1COc1ccn(-c2ccc(Cl)cc2)n1 [Pyraclostrobin],pest or weed control at 5000 ppm,[1],77.3%
Cn1cc(C(=O)Nc2ccccc2-c2cc(F)c(F)c(F)c2)c(C(F)F)n1 [Fluxapyroxad],Ratio of dead and affected mites,[1],61.3%
COC(=O)Oc1c(C)c(C)nc2ccc(F)cc12 [Compound F],Ratio of dead and affected mites,"[2]; 50 ppm, 24 hours later",55%
CCCCCCCCCCCCC1=C(OC(C)=O)C(=O)c2ccccc2C1=O [Acequinocyl],pest or weed control at 5000 ppm,[1],93.3%
Cc1ccc(-c2c(Cl)nc(C#N)n2S(=O)(=O)N(C)C)cc1 [Cyazofamid],pest or weed control at 5000 ppm,[1],23.2%
O=C(NCCc1ncc(C(F)(F)F)cc1Cl)c1ccccc1C(F)(F)F [Fluopyram],pest or weed control at 5000 ppm,[1],50.5%
Cc1nn(C)c(Cl)c1C(=O)Nc1cccc2c1C(C)OC2(C)C (stereo not shown) [Furametpyr],Ratio of dead and affected mites,[1],56.1%
CO/C=C(/C(=O)OC)c1ccccc1Oc1cc(Oc2ccccc2C#N)ncn1 [Azoxystrobin],Ratio of dead and affected mites,[1],55.2%
CC(=O)Oc1c(C)c(C)nc2c(C)cc(C(C)(C)C)cc12 [Compound B],Ratio of dead and affected mites,"[2]; 100 ppm, 24 hours later",100%
same,Ratio of dead and affected mites,"[2]; 100 ppm, 48 hours later",100%
CON=C(C(=O)OC)c1ccccc1CON=C(C)c1cccc(C(F)(F)F)c1 [Trifloxystrobin],pest or weed control at 5000 ppm,[1],75.7%
CO/N=C(/C(=O)OC)c1ccccc1COc1ccccc1C [Kresoxim-Methyl],pest or weed control at 5000 ppm,[1],52.8%
Cc1nc(C(F)(F)F)c(C(=O)Nc2c(Br)cc(OC(F)(F)F)cc2Br)s1 [Thifluzamide],pest or weed control at 5000 ppm,[1],63.2%
COP(=O)(OC)C(O)C(Cl)(Cl)Cl (stereo not shown) [Trichlorfon],Ratio of dead and affected mites,"[2]; 5000 ppm, 48 hours later",84%
CC(=O)Oc1c(C)c(C)nc2c(F)cc(C(C)(C)C)cc12 [Compound A],Ratio of dead and affected mites,"[3]; 50 ppm, 2 hours later",13%
same,Ratio of dead and affected mites,"[3]; 50 ppm, 24 hours later",92%
same,Ratio of dead and affected mites,"[3]; 200 ppm, 2 hours later",53%
same,Ratio of dead and affected mites,"[3]; 200 ppm, 24 hours later",100%
same,Ratio of dead and affected mites,"[3]; 1000 ppm, 2 hours later",100%
same,Ratio of dead and affected mites,"[3]; 1000 ppm, 24 hours later",100%
same,Ratio of dead and affected mites,"[2]; 200 ppm, 24 hours later",7%
same,Ratio of dead and affected mites,"[2]; 200 ppm, 48 hours later",81%
same,Ratio of dead and affected mites,"[2]; 200 ppm, 72 hours later",98%
same,Ratio of dead and affected mites,"[2]; 1000 ppm, 24 hours later",100%
same,Ratio of dead and affected mites,"[2]; 1000 ppm, 48 hours later",100%
same,Ratio of dead and affected mites,"[2]; 1000 ppm, 72 hours later",100%
COC(=O)NCc1cc(/C(C)=N/OCc2cccc(C)n2)ccc1Cl [Pyribencarb],pest or weed control at 5000 ppm,[1],31.1%
CC(C)Oc1cccc(NC(=O)c2ccccc2C(F)(F)F)c1 [Flutolanil],pest or weed control at 5000 ppm,[1],39.5%
Cc1nn(C)c(Oc2ccccc2)c1C=NOCc1ccc(C(=O)OC(C)(C)C)cc1 [Fenpyroximate],pest or weed control at 5000 ppm,[1],100%
C/C(=N/Nc1nc(C)cc(C)n1)c1ccccc1C [Ferimzone],pest or weed control at 5000 ppm,[1],53.5%
CNC(=O)/C(=N/OC)c1ccccc1Oc1ccccc1 [Metominostrobin],pest or weed control at 5000 ppm,[1],50%
CC(=O)Oc1c(C)c(C)nc2c(C)cc(F)cc12 [Compound D],Ratio of dead and affected mites,"[2]; 100 ppm, 24 hours later",100%
same,Ratio of dead and affected mites,"[2]; 100 ppm, 48 hours later",100%
CC1(C)C(C=C(Cl)c2ccc(Cl)cc2)C1C(=O)OC(C#N)c1ccc(F)c(Oc2ccccc2)c1 (stereo not shown) [Flumethrin],Ratio of dead and affected mites,"[3]; 5 ppm, 24 hours later",67%
same,Ratio of dead and affected mites,"[3]; 20 ppm, 24 hours later",83%
same,Ratio of dead and affected mites,"[3]; 50 ppm, 2 hours later",100%
same,Ratio of dead and affected mites,"[3]; 50 ppm, 24 hours later",100%
Spinosad,Ratio of dead and affected mites,"[3]; 50 ppm, 2 hours later",18%
same,Ratio of dead and affected mites,"[3]; 50 ppm, 24 hours later",80%
same,Ratio of dead and affected mites,"[3]; 200 ppm, 2 hours later",3%
same,Ratio of dead and affected mites,"[3]; 200 ppm, 24 hours later",94%
same,Ratio of dead and affected mites,"[2]; 200 ppm, 24 hours later",33%
same,Ratio of dead and affected mites,"[2]; 200 ppm, 48 hours later",69%
same,Ratio of dead and affected mites,"[2]; 200 ppm, 72 hours later",72%
same,Ratio of dead and affected mites,"[2]; 1000 ppm, 24 hours later",32%
same,Ratio of dead and affected mites,"[2]; 1000 ppm, 48 hours later",82%
same,Ratio of dead and affected mites,"[2]; 1000 ppm, 72 hours later",95%
CCC(Nc1ncnc(C)c1Cl)c1ccc(OC(F)F)cc1 (stereo not shown) [Diflumetorim],pest or weed control at 5000 ppm,[1],100%
CC1(C)C(C=C(Cl)Cl)C1C(=O)OCc1cccc(Oc2ccccc2)c1 (stereo not shown) [Permethrin],Ratio of dead and affected mites,"[2]; 100 ppm, 48 hours later",6%
CO/N=C(/C1=NOCCO1)c1ccccc1Oc1ncnc(Oc2ccccc2Cl)c1F [Fluoxastrobin],pest or weed control at 5000 ppm,[1],66.5%
Cc1nn(C)c(F)c1C(=O)Nc1ccccc1C(C)CC(C)C (stereo not shown) [Penflufen],Ratio of dead and affected mites,[1],20.5%
O=[N+]([O-])c1cc(C(F)(F)F)c(Cl)c([N+](=O)[O-])c1Nc1ncc(C(F)(F)F)cc1Cl [Fluazinam],pest or weed control at 5000 ppm,[1],82.5%
CC(=O)Oc1c(C)c(C)nc2c(C)cc(Br)cc12 [Compound C],Ratio of dead and affected mites,"[2]; 100 ppm, 24 hours later",91%
same,Ratio of dead and affected mites,"[2]; 100 ppm, 48 hours later",95%
C[C@@]1(c2ccc(Oc3ccccc3)cc2)OC(=O)N(Nc2ccccc2)C1=O (racemic) [Famoxadone],pest or weed control at 5000 ppm,[1],81.7%
